Test results reported in patent US20060003920A1, “LAT1 transporters expressed in cancer cells” (Xenoport, Inc., priority 2004, published 2006).

Biological target: T1, LAT1 and 4F2HC (Homo sapiens, UniProt Q01650)
T1 construct: expressed in transfected cells; host or cells: Xenopus oocytes, injected with in vitro transcribed cRNA
Assay: 14C-gabapentin uptake into Xenopus oocytes expressing LAT1 and 4F2HC
Type: cell-based
Settings: Xenopus oocytes injected with LAT1 and 4F2HC cRNA vs noninjected controls
Text: To assess transport function of a specific transporter protein, it can be desirable to clone the cDNA and express the protein in cells that have low endogenous transport activity. Human LAT1 was cloned by PCR, fully sequenced, and subcloned into plasmids that can be used for expression in mammalian cells or Xenopus oocytes. The co-subunit required for LAT1 function, 4F2HC (Genbank accession AB018010), was also cloned and sequenced. Unless otherwise noted, 4F2HC was also co-expressed in each heterologous system described in the examples. […] For expression in Xenopus oocytes, in vitro LAT1 and 4F2HC cRNA was prepared and injected into defoliculated oocytes.

T1 sequence (Q01650 whole entry): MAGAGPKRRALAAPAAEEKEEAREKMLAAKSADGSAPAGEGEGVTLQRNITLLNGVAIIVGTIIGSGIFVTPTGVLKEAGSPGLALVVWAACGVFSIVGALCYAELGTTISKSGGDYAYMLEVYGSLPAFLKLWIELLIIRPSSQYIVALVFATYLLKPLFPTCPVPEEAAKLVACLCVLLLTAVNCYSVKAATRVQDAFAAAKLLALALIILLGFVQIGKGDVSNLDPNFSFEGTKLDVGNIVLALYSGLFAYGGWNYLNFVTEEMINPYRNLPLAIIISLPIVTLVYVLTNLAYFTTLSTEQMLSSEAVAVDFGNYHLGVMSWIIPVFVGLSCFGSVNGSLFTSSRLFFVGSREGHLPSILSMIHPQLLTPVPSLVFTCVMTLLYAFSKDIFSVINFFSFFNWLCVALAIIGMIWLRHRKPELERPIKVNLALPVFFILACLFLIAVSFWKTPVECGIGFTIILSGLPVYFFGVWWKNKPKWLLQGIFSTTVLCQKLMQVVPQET
T1 sequence (P08195 102-630 partner): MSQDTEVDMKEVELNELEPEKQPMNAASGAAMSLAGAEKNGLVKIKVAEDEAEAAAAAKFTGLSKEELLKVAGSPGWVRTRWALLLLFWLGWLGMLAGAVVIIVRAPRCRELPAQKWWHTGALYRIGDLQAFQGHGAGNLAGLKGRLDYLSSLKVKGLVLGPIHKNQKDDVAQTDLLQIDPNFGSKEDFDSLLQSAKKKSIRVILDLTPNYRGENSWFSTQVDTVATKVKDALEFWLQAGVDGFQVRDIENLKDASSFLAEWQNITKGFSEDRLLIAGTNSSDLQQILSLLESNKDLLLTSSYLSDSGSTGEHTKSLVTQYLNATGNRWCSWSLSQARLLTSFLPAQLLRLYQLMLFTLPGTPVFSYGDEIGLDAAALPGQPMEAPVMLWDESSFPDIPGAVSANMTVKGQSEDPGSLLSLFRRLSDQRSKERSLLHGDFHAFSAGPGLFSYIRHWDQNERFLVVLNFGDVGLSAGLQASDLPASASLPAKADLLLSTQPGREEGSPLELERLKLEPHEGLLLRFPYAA

## NCC1(CC(=O)O)CCCCC1 [Gabapentin]
  14C-gabapentin uptake into oocytes: higher levels of 14C-gabapentin uptake than noninjected controls
